Results on 5 compounds are retold here after ChEMBL document CHEMBL5465560, “Selectivity Literature for EUbOPEN Chemogenomic Library” (2024).

For assay [1], the target named is T1, Serine/threonine-protein kinase NLK (Homo sapiens) (UniProt Q9UBE8).
T1 sequence (whole entry): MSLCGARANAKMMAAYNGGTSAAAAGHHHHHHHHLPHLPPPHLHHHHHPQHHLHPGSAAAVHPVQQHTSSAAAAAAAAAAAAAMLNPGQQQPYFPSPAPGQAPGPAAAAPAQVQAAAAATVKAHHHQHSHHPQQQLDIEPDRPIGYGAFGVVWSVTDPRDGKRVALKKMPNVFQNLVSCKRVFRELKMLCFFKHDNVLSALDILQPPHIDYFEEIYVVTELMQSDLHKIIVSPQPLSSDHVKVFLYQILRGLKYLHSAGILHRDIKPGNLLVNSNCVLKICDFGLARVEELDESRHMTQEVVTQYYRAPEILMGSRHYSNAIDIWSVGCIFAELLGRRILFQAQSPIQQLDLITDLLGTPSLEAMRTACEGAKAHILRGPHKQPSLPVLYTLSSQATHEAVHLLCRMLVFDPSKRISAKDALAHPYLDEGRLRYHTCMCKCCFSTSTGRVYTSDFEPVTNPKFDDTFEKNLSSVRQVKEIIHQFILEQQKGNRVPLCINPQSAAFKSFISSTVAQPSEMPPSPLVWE
As to the kind of experiment: Selectivity interaction (KinomeScan (DiscoverX)) EUB0000655a NLK. The conditions noted are these: at 10 µM.

The target of assay [2] is Serine/threonine-protein kinase 38 (Homo sapiens) (UniProt Q15208). As to the kind of experiment: Selectivity interaction (ActivX KiNativ screen (kinase selectivity in THP-1 cell lysates)) EUB0000639a STK38. It is filed as subcellular. The conditions noted are these: lysate, at 0.04 µM.
Assay [3] addresses T2, Calcium/calmodulin-dependent protein kinase type IV (Homo sapiens) (UniProt Q16566).
T2 sequence (whole entry): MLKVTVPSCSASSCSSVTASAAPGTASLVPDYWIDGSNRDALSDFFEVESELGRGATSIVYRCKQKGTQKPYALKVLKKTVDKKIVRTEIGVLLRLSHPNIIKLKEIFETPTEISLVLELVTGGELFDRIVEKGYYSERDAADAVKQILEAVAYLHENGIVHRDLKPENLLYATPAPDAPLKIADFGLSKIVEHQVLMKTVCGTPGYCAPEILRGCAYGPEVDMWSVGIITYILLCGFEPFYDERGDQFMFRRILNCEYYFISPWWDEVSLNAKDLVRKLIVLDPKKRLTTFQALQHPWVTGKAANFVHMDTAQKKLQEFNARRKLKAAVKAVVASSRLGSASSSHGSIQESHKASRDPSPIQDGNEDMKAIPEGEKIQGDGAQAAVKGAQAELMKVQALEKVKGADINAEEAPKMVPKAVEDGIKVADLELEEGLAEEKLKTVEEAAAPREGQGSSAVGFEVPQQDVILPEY
Put plainly: Selectivity interaction (Kinase panel (Invitrogen)) EUB0000639a CAMK4. The conditions noted are these: at 200 nM.

The target of assay [4] is T3, Mitogen-activated protein kinase kinase kinase 12 (Homo sapiens) (UniProt Q12852).
T3 sequence (whole entry): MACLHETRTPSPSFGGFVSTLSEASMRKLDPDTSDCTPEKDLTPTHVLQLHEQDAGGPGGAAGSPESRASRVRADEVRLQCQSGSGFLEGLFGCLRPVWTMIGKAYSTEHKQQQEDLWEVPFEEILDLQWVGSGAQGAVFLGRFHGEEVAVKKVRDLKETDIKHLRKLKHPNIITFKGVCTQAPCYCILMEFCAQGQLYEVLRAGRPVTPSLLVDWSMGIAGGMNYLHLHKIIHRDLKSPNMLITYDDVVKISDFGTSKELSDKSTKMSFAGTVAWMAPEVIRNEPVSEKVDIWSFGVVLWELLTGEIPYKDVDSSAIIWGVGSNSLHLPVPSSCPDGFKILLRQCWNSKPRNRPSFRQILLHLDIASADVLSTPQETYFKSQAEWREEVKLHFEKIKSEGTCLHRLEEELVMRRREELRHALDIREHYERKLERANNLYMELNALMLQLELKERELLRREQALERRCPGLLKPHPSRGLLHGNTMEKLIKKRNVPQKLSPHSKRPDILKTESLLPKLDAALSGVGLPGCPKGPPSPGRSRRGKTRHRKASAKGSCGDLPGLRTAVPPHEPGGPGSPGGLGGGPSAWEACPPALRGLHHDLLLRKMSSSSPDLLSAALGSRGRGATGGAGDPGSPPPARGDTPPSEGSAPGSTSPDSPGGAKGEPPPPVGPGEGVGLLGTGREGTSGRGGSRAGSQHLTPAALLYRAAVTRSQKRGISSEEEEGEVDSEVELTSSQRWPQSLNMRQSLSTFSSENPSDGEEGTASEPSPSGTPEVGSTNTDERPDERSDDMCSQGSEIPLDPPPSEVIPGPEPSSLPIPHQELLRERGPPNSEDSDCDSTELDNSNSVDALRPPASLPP
The following applies: at 10 µM.

The target of assay [5] is Mitogen-activated protein kinase 11 (Homo sapiens) (UniProt Q15759). Put plainly: Selectivity interaction (Millipore kinase profiler) EUB0000124b MAPK11. The following applies: at 10 µM.
Assay [6] concerns the target TRAF2 and NCK-interacting protein kinase (Homo sapiens) (UniProt Q9UKE5). As to the kind of experiment: Selectivity interaction (KinomeScan (DiscoverX)) EUB0000092b TNIK. The conditions noted are these: at 10 µM.

Sequence of Mitogen-activated protein kinase 11 (Homo sapiens) (Q15759 whole entry): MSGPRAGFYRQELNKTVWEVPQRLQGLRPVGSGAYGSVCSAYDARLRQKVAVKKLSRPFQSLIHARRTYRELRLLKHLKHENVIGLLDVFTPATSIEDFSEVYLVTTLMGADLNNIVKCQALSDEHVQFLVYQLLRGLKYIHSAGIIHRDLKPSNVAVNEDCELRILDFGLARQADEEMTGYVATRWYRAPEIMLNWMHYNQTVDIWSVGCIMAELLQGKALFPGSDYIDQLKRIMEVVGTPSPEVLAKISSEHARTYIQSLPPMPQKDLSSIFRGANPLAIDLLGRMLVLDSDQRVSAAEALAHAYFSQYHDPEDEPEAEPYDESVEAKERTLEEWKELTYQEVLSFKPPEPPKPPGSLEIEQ
Sequence of Serine/threonine-protein kinase 38 (Homo sapiens) (Q15208 2-465 limits assumed): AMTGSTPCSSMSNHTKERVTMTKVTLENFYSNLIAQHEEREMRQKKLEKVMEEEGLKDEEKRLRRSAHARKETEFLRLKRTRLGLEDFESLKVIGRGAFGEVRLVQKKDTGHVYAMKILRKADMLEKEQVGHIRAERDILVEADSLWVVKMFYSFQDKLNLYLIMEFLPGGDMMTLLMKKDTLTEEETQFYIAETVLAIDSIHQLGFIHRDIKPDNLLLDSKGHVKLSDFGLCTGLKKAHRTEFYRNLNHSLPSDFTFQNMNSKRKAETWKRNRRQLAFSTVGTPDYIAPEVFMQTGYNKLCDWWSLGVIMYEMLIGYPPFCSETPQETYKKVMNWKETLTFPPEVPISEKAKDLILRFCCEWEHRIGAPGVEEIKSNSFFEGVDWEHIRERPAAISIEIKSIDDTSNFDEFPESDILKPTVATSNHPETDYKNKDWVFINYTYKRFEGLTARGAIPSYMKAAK
Sequence of TRAF2 and NCK-interacting protein kinase (Homo sapiens) (Q9UKE5 whole entry, looked up): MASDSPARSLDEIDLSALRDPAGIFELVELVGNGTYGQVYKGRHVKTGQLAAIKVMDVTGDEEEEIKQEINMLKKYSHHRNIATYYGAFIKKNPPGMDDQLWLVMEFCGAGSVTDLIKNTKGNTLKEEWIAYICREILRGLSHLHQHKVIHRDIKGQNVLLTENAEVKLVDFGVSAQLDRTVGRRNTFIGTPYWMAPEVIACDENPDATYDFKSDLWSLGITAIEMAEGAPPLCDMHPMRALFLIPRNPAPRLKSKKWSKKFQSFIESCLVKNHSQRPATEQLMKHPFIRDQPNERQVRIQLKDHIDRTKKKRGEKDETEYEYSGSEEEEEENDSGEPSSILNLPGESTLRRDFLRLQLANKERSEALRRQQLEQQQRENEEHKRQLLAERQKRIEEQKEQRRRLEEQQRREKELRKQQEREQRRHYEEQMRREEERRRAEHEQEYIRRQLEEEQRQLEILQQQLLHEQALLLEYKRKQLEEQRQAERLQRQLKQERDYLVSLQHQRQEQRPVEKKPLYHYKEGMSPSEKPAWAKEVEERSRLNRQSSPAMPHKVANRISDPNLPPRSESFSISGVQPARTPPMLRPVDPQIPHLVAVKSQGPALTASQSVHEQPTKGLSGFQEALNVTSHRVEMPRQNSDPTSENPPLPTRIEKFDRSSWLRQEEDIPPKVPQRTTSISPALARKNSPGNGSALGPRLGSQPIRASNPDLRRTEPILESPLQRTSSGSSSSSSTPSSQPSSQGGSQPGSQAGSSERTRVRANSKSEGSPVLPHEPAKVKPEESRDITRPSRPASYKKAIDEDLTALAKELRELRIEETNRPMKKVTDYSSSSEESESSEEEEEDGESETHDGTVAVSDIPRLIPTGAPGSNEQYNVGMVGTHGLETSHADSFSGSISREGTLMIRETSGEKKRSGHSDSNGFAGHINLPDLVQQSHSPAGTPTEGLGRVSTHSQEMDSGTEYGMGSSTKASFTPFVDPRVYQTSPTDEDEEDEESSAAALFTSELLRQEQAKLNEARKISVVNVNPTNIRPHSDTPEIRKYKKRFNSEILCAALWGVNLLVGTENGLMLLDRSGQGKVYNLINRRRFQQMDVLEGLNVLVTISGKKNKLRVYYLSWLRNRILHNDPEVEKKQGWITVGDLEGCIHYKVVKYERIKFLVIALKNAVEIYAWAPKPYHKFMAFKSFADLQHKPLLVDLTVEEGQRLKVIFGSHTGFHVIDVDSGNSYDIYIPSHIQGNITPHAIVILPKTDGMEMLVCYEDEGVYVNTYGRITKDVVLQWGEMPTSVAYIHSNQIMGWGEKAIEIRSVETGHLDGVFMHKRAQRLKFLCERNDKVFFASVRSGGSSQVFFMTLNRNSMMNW

With `CN(C)CCOc1ccc(-c2nc(-c3ccncc3)c(-c3ccc4c(c3)CC/C4=N\O)[nH]2)cc1`, the % of control in assay [1] is 90%.
As to `CC[C@@H]1[C@H](F)C(=O)N[C@@H]1COc1nccc2cc(C(N)=O)c(OC)cc12` [ZIMLOVISERTIB], the results for the % of inhibition in assay [2] and in assay [3] were -3.9% and -8.2%, respectively.
Take `CCN(CC)CCCCNc1ncc2cc(-c3cc(OC)cc(OC)c3)c(NC(=O)NC(C)(C)C)nc2n1`: in assay [4], the % of control was 100%.
`CC(=O)Nc1cccc(-n2c(=O)n(C3CC3)c(=O)c3c(Nc4ccc(I)cc4F)n(C)c(=O)c(C)c32)c1` registered a % of control in assay [5] of 104%.
In turn, `CCC(=O)N1CCN(c2ccc(-n3c(=O)ccc4cnc5ccc(-c6cnc7ccccc7c6)cc5c43)cc2C(F)(F)F)CC1` had a % of control in assay [6] of 39%.
